# Assay results reported in patent US9073880B2, “2-(2-phenylethenyl) 1,3-benzodiazepine derivatives useful for the treatment of cancer” (Yissum Research Development Company of the Hebrew …, priority 2010, dated 2015).
# Experiments:
# Format in all cases: cell-based
# [1] = system: Human ovary cancer A2780 cells; assay: Cell proliferation, A2780 (Example 4); conditions: compound in 2-hydroxypropyl-β-cyclodextrin
# Experimental: (§1) Human ovary cancer A2780 cells lines were seeded at a density of 5000 cells/well, human melanoma A375 cells were plated at a density of 2,500 cells/well, human colon carcinoma HCT15 cells were plated at a density of 3,000 cells/well, human prostate carcinoma PC3 cells were plated at a density of 1,500 cells/well, human breast carcinoma MCF7 cells were plated at a density of 5,000 cells/well, human breast carcinoma MDA MB 468 cells were plated at a density of 6,000 cells/well, human myeloma U266, RPMI8226 and CAG cells were plated at a density of 10,000 cells/well. All cells were plated in 96-well plates in 90 μl growth medium containing 10% FCS, 100 units/ml penicillin and 100 μg/ml streptomycin. Compound 3 was added a day later in […] of 1% DMSO in DDW to obtain final concentrations of 0, 0.1, 0.3, 1, 3, and 10 μM. The final concentration of DMSO (0.1% DMSO) was kept constant in all samples. Following exposure of the cells to compound 3 for 72 hours at 37° C., adhered cells were fixed in 0.5% gluteraldehyde in medium for 10 min, washed three times with DDW, once with 0.1M sodium borate buffer pH 8.5 and stained with 1% methylene blue dissolved in 0.1M borate buffer solution for 60 min. Excess dye was washed out and cell-bound dye was eluted with 200 μl/well of 0.1M HCl. The optical density values were read at 630 nm in ELISA plate reader. Non-adhered cells were exposed to WST-1 reagent for 5 hours following 72 hours treatment with the inhibitors, and optical density values were read at 630 nm in ELISA plate reader. The data was analyzed in Microsoft Excel, using the vehicle control as 100% proliferation. The assays were performed in triplicates. The values of IC50 were derived from the dose-dependent growth curves obtained.
# (§2) Cell proliferation assay was performed as described in Example 2. […]
# [2] = system: human hepatocarcinoma HepG2 cells; assay: Cell proliferation, HepG2 (Example 4); conditions: compound in 2-hydroxypropyl-β-cyclodextrin
# Experimental: as §1, §2
# [3] = system: human breast cancer MDA-MB-468 cells; assay: Cell proliferation, MDA-MB-468 (Example 4); conditions: MDA-MB-468, breast cancer, compound in 2-hydroxypropyl-β-cyclodextrin
# Experimental: as §1, §2
# [4] = system: human multiple myeloma MM1S cells; assay: Cell proliferation, MM1S (Example 4); conditions: MM1.S, compound in 2-hydroxypropyl-β-cyclodextrin
# Experimental: as §1
# (§3) Cell proliferation assay was performed as described in Example 2. The following cell line were plated in 96-well plates in 90 μl growth medium containing 10% FCS, 100 units/ml penicillin and 100 μg/ml streptomycin: human ovary cancer A2780 cells (4500 cells/well), human melanoma A375 (1500 cells/well) and YUMAC (2500 cells/well) cells, human colon carcinoma HCT15 (3000 cells/well) and HCT116 (2000 cells/well) cells, human prostate carcinoma PC3 (3000 cells/well), PC3MM2 (3500 cells/well) and DU145 (300 cells/well) cells, human hepatocarcinoma HepG2 (3000 cells/well), human Ewing sarcoma SK-ES-1 (4,500 cells/well), human glioblastoma U138MG (2,000 cells/well), human breast cancer T47D (4000 cells/well) and MDA-MB-468 (6000 cells/well) cells, human small cell lung carcinoma NCI-H1975 (5000 cells/well) cells, human osteosarcoma Saos-2 (5000 cells/well) cells, human pancreatic cancer ASPC (2500 cells/well) cells, human bladder carcinoma T24P (1000 cells/well) cells, human gastric cancer NCI-N87 (5000 cells/well) cells, human lymphoma KARPAS (5,000 cells/well) cells, human leukemia K562 (5,000 cells/well) cells and human multiple myeloma MM1S (10,000 cells/well), U266 (10,000 cells/well) and CAG (5,000 cells/well). Compounds 2-5 and 7-8 were added a day later in 10 μl of 0.7% 2-hydroxypropyl-β-cyclodextrin to obtain final concentrations of 0, 0.1, 0.3, 1, 3 and 10 μM.
# Compounds 2-5 and 7-8 of the present invention were tested for their inhibitory potential in cell proliferation assay. Human ovary cancer A2780 cells, human melanoma A375 and YUMAC cells, human colon carcinoma HCT15 and HCT116 cells, human prostate carcinoma PC3, PC3MM2 and DU145 cells, human hepatocarcinoma HepG2 cells, human Ewing sarcoma SK-ES-1 cells, human glioblastoma U138MG cells, human breast cancer T47D and MDA-MB-468 cells, human small cell lung carcinoma NCI-H1975 cells, human osteosarcoma Saos-2 cells, human pancreatic cancer ASPC cells, human bladder cancer T24P cells, human gastric cancer cells, human lymphoma KARPAS cells, human leukemia K562 cells, and human multiple myeloma MM1S, CAG and U266 cells, were exposed to increasing concentrations of compounds 2-5 and 7-8. […]
# [5] = system: human pancreatic cancer ASPC cells; assay: Cell proliferation, ASPC (Example 4); conditions: compound in 2-hydroxypropyl-β-cyclodextrin
# Experimental: as §1, §3
# (§4) Compounds 2-5 and 7-8 of the present invention were tested for their inhibitory potential in cell proliferation assay. […]
# [6] = system: human colon carcinoma HCT116 cells; assay: Cell proliferation, HCT116 (Example 4); conditions: HCT-116, HCT116, colon cancer, compound in 2-hydroxypropyl-β-cyclodextrin
# Experimental: as §1, §3, §4
# [7] = system: human melanoma YUMAC cells; assay: Cell proliferation, YUMAC (Example 4); conditions: compound in 2-hydroxypropyl-β-cyclodextrin
# Experimental: as §1, §3, §4
# [8] = system: human leukemia K562 cells; assay: Cell proliferation, K562 (Example 4); conditions: compound in 2-hydroxypropyl-β-cyclodextrin
# Experimental: as §1, §3, §4
# [9] = system: human Ewing sarcoma SK-ES-1 cells; assay: Cell proliferation, SK-ES-1 (Example 4); conditions: SK-ES1, SK-ES-1, Ewing sarcoma, compound in 2-hydroxypropyl-β-cyclodextrin
# Experimental: as §1, §2
# [10] = system: human lymphoma KARPAS cells; assay: Cell proliferation, KARPAS (Example 4); conditions: compound in 2-hydroxypropyl-β-cyclodextrin
# Experimental: as §1, §2
# [11] = system: human glioblastoma U138MG cells; assay: Cell proliferation, U138MG (Example 4); conditions: U138-MG, compound in 2-hydroxypropyl-β-cyclodextrin
# Experimental: as §1, §2
# [12] = system: human gastric cancer NCI-N87 cells; assay: Cell proliferation, NCI-N87 (Example 4); conditions: compound in 2-hydroxypropyl-β-cyclodextrin
# Experimental: as §1, §2
# [13] = system: human prostate carcinoma DU145 cells; assay: Cell proliferation, DU145 (Example 4); conditions: DU-145, DU145, prostate cancer, compound in 2-hydroxypropyl-β-cyclodextrin
# Experimental: as §1, §2
# human NCI-H1975 cells = assay: Cell proliferation, NCI-H1975 (Example 4); conditions: NCI-H1975, SCLC, compound in 2-hydroxypropyl-β-cyclodextrin
# Experimental: as §1, §2
# [14] = system: human bladder carcinoma T24P cells; assay: Cell proliferation, T24P (Example 4); conditions: compound in 2-hydroxypropyl-β-cyclodextrin
# Experimental: as §1, §2
# [15] = system: human osteosarcoma Saos-2 cells; assay: Cell proliferation, Saos-2 (Example 4); conditions: Saos-2, osteosarcoma, compound in 2-hydroxypropyl-β-cyclodextrin
# Experimental: as §1, §2
# [16] = system: human multiple myeloma CAG cells; assay: Cell proliferation, CAG (Example 4); conditions: compound in 2-hydroxypropyl-β-cyclodextrin
# Experimental: as §1, §2
# [17] = system: human breast cancer T47D cells; assay: Cell proliferation, T47D (Example 4); conditions: compound in 2-hydroxypropyl-β-cyclodextrin
# Experimental: as §1, §2
# [18] = system: human prostate carcinoma PC3MM2 cells; assay: Cell proliferation, PC3MM2 (Example 4); conditions: PC3MM2, prostate cancer, compound in 2-hydroxypropyl-β-cyclodextrin
# Experimental: as §1, §2
IC50 [1] [nM],IC50 [2] [nM],IC50 [3] [nM],IC50 [4] [nM],IC50 [5] [nM],IC50 [6] [nM],IC50 [7] [nM],IC50 [8] [nM],IC50 [9] [nM],IC50 [10] [nM],IC50 [11] [nM],IC50 [12] [nM],IC50 [13] [nM],IC50 (human NCI-H1975 cells) [nM],IC50 [14] [nM],IC50 [15] [nM],IC50 [16] [nM],IC50 [17] [nM],IC50 [18] [nM],Structure (SMILES)
600,2800,1200,2000,–,–,–,–,–,–,–,–,–,–,–,–,–,–,–,N#C/C(=C\c1cc(O)c(O)c(I)c1)c1ncc2cc(O)c(=O)c(O)c-2s1 [Compound 2]
–,–,–,500,17700,800,500,800,–,–,–,–,–,–,–,–,–,–,–,O=c1c(O)c2sc(/C=C/c3cc(O)c(O)c(Br)c3)ncc-2c(Br)c1O [Compound 8]
–,–,–,200,13300,1400,500,1800,200,1800,800,8400,2300,2600,4500,2700,4900,–,–,O=c1c(O)cc2cnc(/C=C/c3cc(O)c(O)cc3Br)sc-2c1O [Compound 7]
300,2700,2200,700,18500,700,500,900,200,1500,300,4800,2000,1100,3200,2000,3000,700,900,O=c1c(O)cc2cnc(/C=C/c3cc(O)c(O)c(I)c3)sc-2c1O [Compound 4]
